Reference: patent US10787450B2 (BRISTOL-MYERS SQUIBB COMPANY, priority 2016, dated 2020)

Target: ROCK2 (Homo sapiens (Human), UniProt O75116)
Experiment: ROCK2 kinase inhibition assay (FITC peptide substrate, LABCHIP 3000 Reader)
Assay type: biochemical
Conditions: 5 μM ATP, 1.5 μM peptide substrate
Procedure, shortened: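 Reaction in 20 mM HEPES pH 7.5, 20 mM MgCl2, 0.015% Brij-35, 4 mM DTT with 5 μM ATP and 1.5 μM FITC-AHA-AKRRRLSSLRA-OH peptide, started with Rho kinase, DMSO <2%. EDTA-stopped; phospho and non-phospho peptide separated by mobility shift. IC50 from dose-response curve fit.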

Sequence of ROCK2 (O75116 whole entry, species assumed): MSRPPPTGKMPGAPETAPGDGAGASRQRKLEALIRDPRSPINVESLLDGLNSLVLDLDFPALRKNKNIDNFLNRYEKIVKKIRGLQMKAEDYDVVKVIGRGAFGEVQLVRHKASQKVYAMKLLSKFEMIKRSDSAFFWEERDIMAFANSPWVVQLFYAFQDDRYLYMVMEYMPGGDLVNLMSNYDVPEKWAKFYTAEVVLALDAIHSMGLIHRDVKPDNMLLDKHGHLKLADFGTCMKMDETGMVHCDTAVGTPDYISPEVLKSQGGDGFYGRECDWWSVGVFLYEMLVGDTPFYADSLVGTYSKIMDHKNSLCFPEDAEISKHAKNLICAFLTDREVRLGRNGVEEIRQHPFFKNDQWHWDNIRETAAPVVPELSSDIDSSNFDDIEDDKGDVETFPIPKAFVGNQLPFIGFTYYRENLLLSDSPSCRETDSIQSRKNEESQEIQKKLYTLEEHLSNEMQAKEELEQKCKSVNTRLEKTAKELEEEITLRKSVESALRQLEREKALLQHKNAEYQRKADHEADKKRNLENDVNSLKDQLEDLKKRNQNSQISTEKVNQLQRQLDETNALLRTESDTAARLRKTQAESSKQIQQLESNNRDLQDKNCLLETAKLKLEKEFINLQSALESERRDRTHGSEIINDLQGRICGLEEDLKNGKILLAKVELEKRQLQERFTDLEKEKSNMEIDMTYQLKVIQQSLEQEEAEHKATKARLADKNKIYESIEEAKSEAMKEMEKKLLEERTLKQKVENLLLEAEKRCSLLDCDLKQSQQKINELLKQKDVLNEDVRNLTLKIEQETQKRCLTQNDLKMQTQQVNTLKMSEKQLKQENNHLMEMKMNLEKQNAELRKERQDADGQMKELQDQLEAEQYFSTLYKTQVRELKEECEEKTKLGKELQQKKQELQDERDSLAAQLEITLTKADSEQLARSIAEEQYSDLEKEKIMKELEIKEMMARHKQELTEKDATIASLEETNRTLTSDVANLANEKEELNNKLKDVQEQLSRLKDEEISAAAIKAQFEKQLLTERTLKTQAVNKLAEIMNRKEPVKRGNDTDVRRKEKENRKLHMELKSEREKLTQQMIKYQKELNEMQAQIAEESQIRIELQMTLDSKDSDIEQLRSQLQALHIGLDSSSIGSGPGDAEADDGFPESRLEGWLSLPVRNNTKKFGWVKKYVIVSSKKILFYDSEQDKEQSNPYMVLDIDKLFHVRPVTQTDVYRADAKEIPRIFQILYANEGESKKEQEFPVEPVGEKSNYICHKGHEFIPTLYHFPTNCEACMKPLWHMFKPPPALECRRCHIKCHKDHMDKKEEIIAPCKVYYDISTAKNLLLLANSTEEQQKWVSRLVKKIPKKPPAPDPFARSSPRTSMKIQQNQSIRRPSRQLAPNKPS

Structure (SMILES)	IC50
Cc1c(F)cccc1CN1C(=O)N(c2ccc(-c3cn[nH]c3)cc2)CC12CCN(CC(F)F)CC2 [Example 131, 3-(4-(1H-pyrazol-4-yl)phenyl)-8-(2,2-difluoroethyl)-1-(3-fluoro-2-methylbenzyl)-1,3,8-triazaspiro[4.5]decan-2-one]	< 3 nM
COc1cccc(CN2C(=O)N(c3ccc(-c4cn[nH]c4)cc3)CC23CCN(C(=O)OCCOCc2ccccc2)CC3)c1 [Example 101, 2-(benzyloxy)ethyl 3-(4-(1H-pyrazol-4-yl)phenyl)-1-(3-methoxybenzyl)-2-oxo-1,3,8-triazaspiro[4.5]decane-8-carboxylate]	3 to 30 nM
CC(=O)N1CCC2(CC1)CN(c1ccc(-c3cn[nH]c3)cc1)C(=O)N2Cc1ccc(F)cc1C [Example 80, 3-(4-(1H-pyrazol-4-yl)phenyl)-8-acetyl-1-(4-fluoro-2-methylbenzyl)-1,3,8-triazaspiro[4.5]decan-2-one]	3 to 30 nM
COc1cccc(CN2C(=O)N(c3ccc(-c4cn[nH]c4)cn3)CC23CCN(C2COC2)CC3)c1 [Example 237, 3-(5-(1H-pyrazol-4-yl)pyridin-2-yl)-1-(3-methoxy-benzyl)-8-(oxetan-3-yl)-1,3,8-triazaspiro [4.5]decan-2-one]	< 3 nM
CCc1nc(N2CC3(CCN(CC(C)O)CC3)N(Cc3cc(F)cc(OC)c3)C2=O)ccc1-c1cn[nH]c1 (centres unmarked) [Example 154, 3-(6-ethyl-5-(1H-pyrazol-4-yl)pyridin-2-yl)-1-(3-fluoro-5-methoxybenzyl)-8-(2-hydroxypropyl)-1,3,8-triazaspiro[4.5]decan-2-one]	< 3 nM
COc1cccc(NC2C(=O)N(c3ccc(-c4cn[nH]c4)cc3)CC23CN(C(=O)OC(C)(C)C)C3)c1 (centres unmarked) [Example 240, tert-butyl 6-(4-(1H-pyrazol-4-yl)phenyl)-8-((3-methoxyphenyl)amino)-7-oxo-2,6-diazaspiro[3.4]octane-2-carboxylate]	30 to 250 nM
COc1nc(N2CC3(CCN(C(=O)CCN4CCCC4=O)CC3)N(Cc3cccc(F)c3C)C2=O)ccc1-c1cn[nH]c1 [Example 227, 1-(3-fluoro-2-methylbenzyl)-3-(6-methoxy-5-(1H-pyrazol-4-yl)pyridin-2-yl)-8-(3-(2-oxopyrrolidin-1-yl)propanoyl)-1,3,8-triazaspiro[4.5]decan-2-one]	< 3 nM
COc1nc(N2CC3(CCN(C(=O)CN(C)C)CC3)N(Cc3cccc(F)c3C)C2=O)ccc1-c1cn[nH]c1 [Example 225, 8-(2-(dimethylamino)acetyl)-1-(3-fluoro-2-methylbenzyl)-3-(6-methoxy-5-(1H-pyrazol-4-yl)pyridin-2-yl)-1,3,8-triazaspiro[4.5]decan-2-one]	< 3 nM
COc1cccc(CN2C(=O)N(c3ncc(-c4cn[nH]c4)c(OC)n3)CC23CCN(C(=O)C(C)(C)O)CC3)c1 [Example 212, 8-(2-hydroxy-2-methylpropanoyl)-3-(4-methoxy-5-(1H-pyrazol-4-yl)pyrimidin-2-yl)-1-(3-methoxybenzyl)-1,3,8-triazaspiro[4.5]decan-2-one]	3 to 30 nM
COC(=O)N1CCC2(CC1)CN(c1ccc(-c3cn[nH]c3)c(OC)n1)C(=O)N2Cc1cccc(F)c1C [Example 103, methyl 1-(3-fluoro-2-methylbenzyl)-3-(6-methoxy-5-(1H-pyrazol-4-yl)pyridin-2-yl)-2-oxo-1,3,8-triazaspiro[4.5]decane-8-carboxylate]	< 3 nM
COc1cccc(C(C)N2C(=O)N(c3ccc(-c4cn[nH]c4)cc3)CC23CC3)c1 (single isomer, unassigned) [Example 2, 6-(4-(1H-pyrazol-4-yl)phenyl)-4-(1-(3-methoxyphenyl)ethyl)-4,6-diazaspiro[2.4]heptan-5-one]	3 to 30 nM
COc1cccc(CN2C(=O)N(c3ncc(-c4cn[nH]c4)c(OC)n3)CC23CCN(C(=O)C2CC(F)(F)C2)CC3)c1 [Example 209, 8-(3,3-difluorocyclo-butanecarbonyl)-3-(4-methoxy-5-(1H-pyrazol-4-yl)pyrimidin-2-yl)-1-(3-methoxybenzyl)-1,3,8-triazaspiro[4.5]decan-2-one]	3 to 30 nM
CCc1nc(N2CC3(CCN(C(=O)COC)CC3)N(Cc3cccc(OC)c3)C2=O)ccc1-c1cn[nH]c1 [Example 206, 3-(6-ethyl-5-(1H-pyrazol-4-yl)pyridin-2-yl)-8-(2-methoxyacetyl)-1-(3-methoxybenzyl)-1,3,8-triazaspiro[4.5]decan-2-one]	< 3 nM
COc1cccc(CN2C(=O)N(c3ncc(-c4cn[nH]c4)c(OC)n3)CC23CCN(CC(C)(C)O)CC3)c1 [Example 163, 8-(2-hydroxy-2-methylpropyl)-3-(4-methoxy-5-(1H-pyrazol-4-yl)pyrimidin-2-yl)-1-(3-methoxybenzyl)-1,3,8-triazaspiro[4.5]decan-2-one]	3 to 30 nM
CCc1nc(N2CC3(CCN(CC(C)O)CC3)N(Cc3cccc(OC)c3)C2=O)ccc1-c1cn[nH]c1 (centres unmarked) [Example 151, 3-(6-ethyl-5-(1H-pyrazol-4-yl)pyridin-2-yl)-8-(2-hydroxypropyl)-1-(3-methoxybenzyl)-1,3,8-triazaspiro[4.5]decan-2-one]	< 3 nM
COc1nc(N2CC3(CCN(C4COC4)CC3)N(Cc3cccc(F)c3C)C2=O)ccc1-c1cn[nH]c1 [Example 239, 1-(3-fluoro-2-methyl-benzyl)-3-(6-methoxy-5-(1H-pyrazol-4-yl)pyridin-2-yl)-8-(oxetan-3-yl)-1,3,8-triazaspiro [4.5]decan-2-one]	< 3 nM
CCc1nc(N2CC3(CCN(C(C)=O)CC3)N(Cc3cccc(F)c3C)C2=O)ccc1-c1cn[nH]c1 [Example 87, 8-acetyl-3-(6-ethyl-5-(1H-pyrazol-4-yl)pyridin-2-yl)-1-(3-fluoro-2-methylbenzyl)-1,3,8-triazaspiro[4.5]decan-2-one]	< 3 nM
COc1cccc(C(C)N2C(=O)N(c3ccc(-c4cn[nH]c4)cc3)CC23CC3)c1 (single isomer, unassigned) [Example 3, 6-(4-(1H-pyrazol-4-yl)phenyl)-4-(1-(3-methoxyphenyl)ethyl)-4,6-diazaspiro[2.4]heptan-5-one]	30 to 250 nM

Results, then the molecule that gave them:

IC50	Structure (SMILES)
30 to 250 nM	O=C1N(c2ccc(-c3cn[nH]c3)cc2)CC2(CCOCC2)N1Cc1ccc(F)cc1F [Example 22, 3-(4-(1H-pyrazol-4-yl)phenyl)-1-(2,4-difluorobenzyl)-8-oxa-1,3-diazaspiro[4.5]decan-2-one]
< 3 nM	COc1cc(CN2C(=O)N(c3ccc(-c4cn[nH]c4)cc3)CC23CCNCC3)ccc1F [Example 59, 3-(4-(1H-pyrazol-4-yl)phenyl)-1-(4-fluoro-3-methoxybenzyl)-1,3,8-triazaspiro[4.5]decan-2-one]
30 to 250 nM	O=C1N(c2ccc(-c3cn[nH]c3)cc2)CC2(CCOCC2)N1Cc1ccc(Cl)c(Cl)c1 [Example 19, 3-(4-(1H-pyrazol-4-yl)phenyl)-1-(3,4-dichlorobenzyl)-8-oxa-1,3-diazaspiro[4.5]decan-2-one]
< 3 nM	COc1cccc(CN2C(=O)N(c3ccc(-c4cn[nH]c4)cc3)CC23CCN(CCO)CC3)c1 [Example 141, 3-(4-(1H-pyrazol-4-yl)phenyl)-8-(2-hydroxyethyl)-1-(3-methoxybenzyl)-1,3,8-triazaspiro[4.5]decan-2-one]
< 3 nM	COc1cccc(CN2C(=O)N(c3ccc(-c4cn[nH]c4)cc3)CC23CCN(C)CC3)c1 [Example 113, 3-(4-(1H-pyrazol-4-yl)phenyl)-1-(3-methoxybenzyl)-8-methyl-1,3,8-triazaspiro[4.5]decan-2-one]
< 3 nM	COC(=O)N1CCC2(CC1)CN(c1ccc(-c3cn[nH]c3)cc1)C(=O)N2Cc1cccc(OC)c1 [Example 94, Methyl 3-(4-(1H-pyrazol-4-yl)phenyl)-1-(3-methoxybenzyl)-2-oxo-1,3,8-triazaspiro[4.5]decane-8-carboxylate]
< 3 nM	COc1cccc(CN2C(=O)N(c3ccc(-c4cn[nH]c4)cc3)CC23CCN(CC(C)C)CC3)c1 [Example 124, 3-(4-(1H-pyrazol-4-yl)phenyl)-8-isobutyl-1-(3-methoxybenzyl)-1,3,8-triazaspiro[4.5]decan-2-one]
< 3 nM	COc1cccc(CN2C(=O)N(c3ccc(-c4cn[nH]c4)cc3)CC23CCN(C(=O)C(C)O)CC3)c1 (centres unmarked) [Example 191, 3-(4-(1H-pyrazol-4-yl)phenyl)-8-(2-hydroxypropanoyl)-1-(3-methoxybenzyl)-1,3,8-triazaspiro[4.5]decan-2-one]
< 3 nM	COCCOC(=O)N1CCC2(CC1)CN(c1ccc(-c3cn[nH]c3)cc1)C(=O)N2Cc1cccc(OC)c1 [Example 98, 2-methoxyethyl 3-(4-(1H-pyrazol-4-yl)phenyl)-1-(3-methoxybenzyl)-2-oxo-1,3,8-triazaspiro[4.5]decane-8-carboxylate]
< 3 nM	COc1cccc(CN2C(=O)N(c3ccc(-c4cn[nH]c4)cc3)CC23CCOCC3)c1 [Example 9, 3-(4-(1H-pyrazol-4-yl)phenyl)-1-(3-methoxybenzyl)-8-oxa-1,3-diazaspiro[4.5]decan-2-one]
< 3 nM	COc1cccc(CN2C(=O)N(c3ccc(-c4cn[nH]c4)cc3)CC23CCN(C(=O)OC(C)C)CC3)c1 [Example 99, isopropyl 3-(4-(1H-pyrazol-4-yl)phenyl)-1-(3-methoxybenzyl)-2-oxo-1,3,8-triazaspiro[4.5]decane-8-carboxylate]
< 3 nM	CCCN1CCC2(CC1)CN(c1ccc(-c3cn[nH]c3)cc1)C(=O)N2Cc1cccc(OC)c1 [Example 116, 3-(4-(1H-pyrazol-4-yl)phenyl)-1-(3-methoxybenzyl)-8-propyl-1,3,8-triazaspiro[4.5]decan-2-one]
30 to 250 nM	O=C1N(c2ccc(-c3cn[nH]c3)cc2)CC2(CCOCC2)N1Cc1cccc(OC(F)(F)F)c1 [Example 20, 3-(4-(1H-pyrazol-4-yl)phenyl)-1-(3-(trifluoromethoxy)benzyl)-8-oxa-1,3-diazaspiro[4.5]decan-2-one]
30 to 250 nM	CNC(=O)c1cccc(CN2C(=O)N(c3ccc(-c4cn[nH]c4)cc3)CC23CCOCC3)c1 [Example 31, 3-((3-(4-(1H-pyrazol-4-yl)phenyl)-2-oxo-8-oxa-1,3-diazaspiro[4.5]decan-1-yl)methyl)-N-methylbenzamide]
